# According to US7348440B2, “Mitotic kinesin inhibitors” (Merck & Co., Inc., priority 2002, dated 2008):
# pIC50: −log10 of the molar value.
# Molecular target: T1, human KSP motor domain (KSP(367H)) (Homo sapiens, UniProt P52732)
# T1 construct: were used to amplify the motor domain and the neck linker region; made in house; host or cells: E. coli BL21 (DE3), pRSETa vector
# T1 sequence (P52732 18-359 limits assumed): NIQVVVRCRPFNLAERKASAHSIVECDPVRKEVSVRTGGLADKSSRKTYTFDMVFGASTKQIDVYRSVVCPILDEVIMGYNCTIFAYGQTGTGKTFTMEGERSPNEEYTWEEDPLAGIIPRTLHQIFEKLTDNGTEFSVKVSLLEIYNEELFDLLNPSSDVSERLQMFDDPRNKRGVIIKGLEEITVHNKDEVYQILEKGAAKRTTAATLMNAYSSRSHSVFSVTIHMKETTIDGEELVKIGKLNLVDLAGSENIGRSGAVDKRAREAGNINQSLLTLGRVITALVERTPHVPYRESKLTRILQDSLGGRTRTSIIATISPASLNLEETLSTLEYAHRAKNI
# Test: Kinesin ATPase In Vitro Assay
# Format: biochemical
# Details: not given
# Protocol: I. Kinesin ATPase In Vitro Assay
# The N-terminal primer 5′-[…] (SEQ.ID.NO.: 1) and the C-terminal primer 5′-[…] […] (SEQ.ID.NO.: 2) were used to amplify the motor domain and the neck linker region. The PCR products were digested with AseI and XhoI, ligated into the NdeI/XhoI digestion product of pRSETa (Invitrogen) and transformed into E. coli BL21 (DE3).
# Cells were grown at 37° C. to an OD600 of 0.5. After cooling the culture to room temperature expression of KSP was induced with 100 μM IPTG and incubation was continued overnight. Cells were pelleted by centrifugation and washed once with ice-cold PBS. Pellets were flash-frozen and stored −80° C.
# Cell pellets were thawed on ice and resuspended in lysis buffer (50 mM K-HEPES, pH 8.0, 250 mM KCl, 0.1% Tween, 10 mM imidazole, 0.5 mM Mg-ATP, 1 mM PMSF, 2 mM benzimidine, 1× complete protease inhibitor cocktail (Roche)). Cell suspensions were incubated with 1 mg/ml lysozyme and 5 mM β-mercaptoethanol on ice for 10 minutes, followed by sonication (3×30 sec). All subsequent procedures were performed at 4° C. Lysates were centrifuged at 40,000×g for 40 minutes. Supernatants were diluted and loaded onto an SP Sepharose column (Pharmacia, 5 ml cartridge) in buffer A (50 mM K-HEPES, pH 6.8, 1 mM MgCl2, 1 mM EGTA, 10 μM Mg-ATP, 1 mM DTT) and eluted with a 0 to 750 mM KCl gradient in buffer A. Fractions containing KSP were pooled and incubated with Ni-NTA resin (Qiagen) for one hour. The resin was washed three times with buffer B (Lysis buffer minus PMSF and protease inhibitor cocktail), followed by three 15-minute incubations and washes with buffer B. Finally, the resin was incubated and washed for 15 minutes three times with buffer C (same as buffer B except for pH 6.0) and poured into a column. KSP was eluted with elution buffer (identical to buffer B except for 150 mM KCl and 250 mM imidazole). KSP-containing fractions were pooled, made 10% in sucrose, and stored at −80° C.
# Microtubules are prepared from tubulin isolated from bovine brain. Purified tubulin (>97% MAP-free) at 1 mg/ml is polymerized at 37° C. in the presence of 10 μM paclitaxel, 1 mM DTT, 1 mM GTP in BRB80 buffer (80 mM K-PIPES, 1 mM EGTA, 1 mM MgCl2 at pH 6.8). The resulting microtubules are separated from non-polymerized tubulin by ultracentrifugation and removal of the supernatant. The pellet, containing the microtubules, is gently resuspended in 10 μM paclitaxel, 1 mM DTT, 50 μg/ml ampicillin, and 5 μg/ml chloramphenicol in BRB80.
# The kinesin motor domain is incubated with microtubules, 1 mM ATP (1:1 MgCl2: Na-ATP), and compound at 23° C. in buffer containing 80 mM K-HEPES (pH 7.0), 1 mM EGTA, 1 mM DTT, 1 mM MgCl2, and 50 mM KCl. The reaction is terminated by a 2-10 fold dilution with a final buffer composition of 80 mM HEPES and 50 mM EDTA (or, alternately, with a 1:1 addition of reaction volume to stop buffer(1.8M KCl and 50 mM EDTA)). Free phosphate from the ATP hydrolysis reaction is measured via a quinaldine red/ammonium molybdate assay by adding a 1.5 times volume of quench C (e.g., to a mixture of 40 μl reaction volume+40 μl stop buffer is then added 120 μl quench C). […] Quench C is a 2:1 ratio of quench A:quench B The reaction is incubated for 5-10 minutes at 23° C., and the absorbance of the phospho-molybdate complex is measured at 540 nm.
row,Structure (SMILES),pIC50
1,"CN(C(=O)N1CC(c2cc(F)ccc2F)=C[C@H]1c1ccccc1)C1CCNCC1 [18-4, (2S)-4-(2,5-Difluorophenyl)-N-methyl-2-phenyl-N-piperidin-4-yl-2,5-dihydro-1H-pyrrole-1-carboxamide]",≥ 4.30

# Same assay, conditions: kinesin motor domain incubated with microtubules, 1 mM ATP and compound at 23° C.; free phosphate by quinaldine red/ammonium molybdate, absorbance 540 nm; read-out: IC50
row,Structure (SMILES),pIC50
1,"NCCS(=O)(=O)N1CC(c2cc(F)ccc2F)=CC1c1ccccc1 (stereo not shown) [7-2, 2-{[4-(2,5-difluorophenyl)-2-phenyl-2,5-dihydro-1H-pyrrol-1-yl]sulfonyl}ethanamine]",≥ 4.30
2,"CC(=O)N1CC(c2cc(F)ccc2F)=CC1c1ccccc1 (stereo not shown) [9-1, 1-acetyl-4-(2,5-difluorophenyl)-2-phenyl-2,5-dihydro-1H-pyrrole]",≥ 4.30
3,"CN(C)CCS(=O)(=O)N1CC(c2cc(F)ccc2F)=CC1c1ccccc1 (stereo not shown) [8-2, 2-{[4-(2,5-difluorophenyl)-2-phenyl-2,5-dihydro-1H-pyrrol-1-yl]sulfonyl}-N,N-dimethylethanamine]",≥ 4.30
4,"CN(C)C(=O)N1CC(c2cc(F)ccc2Cl)=CC1c1ccccc1 (stereo not shown) [1-6, 4-(2-chloro-5-fluorophenyl)-N,N-dimethyl-2-phenyl-2,5-dihydro-1H-pyrrole-1-carboxamide]",≥ 4.30
5,"CN(C)C(=O)N1CC(c2cc(C(F)(F)F)ccc2F)C=C1c1ccccc1 (stereo not shown) [3-2, 3-[2-fluoro-5-(trifluoromethyl)phenyl]-N,N-dimethyl-5-phenyl-2,3-dihydro-1H-pyrrole-1-carboxamide]",≥ 4.30

# More lines, now with the values ahead:
row,pIC50,Structure (SMILES)
1,≥ 4.30,"CN(CC1CCNCC1)C(=O)N1CC(c2cc(F)ccc2F)=C[C@H]1c1ccccc1 [18a-6, (2S)-4-(2,5-Difluorophenyl)-N-methyl-2-phenyl-N-(piperidin-4-ylmethyl)-2,5-dihydro-1H-pyrrole-1-carboxamide]"
2,≥ 4.30,"[C-]#[N+]c1ccc(F)c(C2=CC(c3ccccc3)N(C(=O)N(C)C)C2)c1 (stereo not shown) [13-1, 4-(2-fluoro-5-isocyanophenyl)-N,N-dimethyl-2-phenyl-2,5-dihydro-1H-pyrrole-1-carboxamide]"
3,≥ 4.30,"CC(C)(C)OC(=O)N1CC(OS(=O)(=O)C(F)(F)F)=C[C@H]1c1ccccc1 [compound 54, (2S)-tert-butyl 2-phenyl-4-{[(trifluoromethyl)sulfonyl]oxy}-2,5-dihydro-1H-pyrrole-1-carboxylate]"
4,≥ 4.30,"CC(C)(O)C(=O)N1CC(c2cc(F)ccc2F)=CC1c1ccccc1 (stereo not shown) [11-1, 1-[4-(2,5-difluorophenyl)-2-phenyl-2,5-dihydro-1H-pyrrol-1-yl]-2-methyl-1-oxopropan-2-ol]"
5,≥ 4.30,"CN(C(=O)N1CC(c2cc(Cl)ccc2F)=C[C@H]1c1ccccc1)[C@@H]1CCNC1 [18b-8, (2S)-4-(5-Chloro-2-fluorophenyl)-N-methyl-2-phenyl-N-[(3R)-pyrrolidin-3-yl]-2,5-dihydro-1H-pyrrole-1-carboxamide]"
6,≥ 4.30,"CC(C)(N)C(=O)N1CC(c2cc(F)ccc2F)=CC1c1ccccc1 (stereo not shown) [12-1, 1-[4-(2,5-difluorophenyl)-2-phenyl-2,5-dihydro-1H-pyrrol-1-yl]-2-methyl-1-oxopropan-2-amine]"
7,≥ 4.30,"CCS(=O)(=O)C(C)CN1CC(c2cc(F)ccc2F)=C[C@H]1c1ccccc1 (single isomer, unassigned) [38-1]"
